Measurements from PMC7522982, “PKIS deep dive yields a chemical starting point for dark kinases and a cell active BRSK2 inhibitor” (Scientific Reports, 2020).

Assays:
[1] = biological target: T1, NLuc-BRSK2 in HEK293 cells (Homo sapiens, UniProt Q8IWQ3); experiment: BRSK2 NanoBRET cellular target engagement assay; assay type: cell-based; settings: HEK293 cells transiently expressing NLuc-BRSK2; Tracer K5 1 μM; N = 3; read-out: BRSK2 NanoBRET data IC50
T1 construct: host or cells: HEK293
T1 sequence (Q8IWQ3 1-736): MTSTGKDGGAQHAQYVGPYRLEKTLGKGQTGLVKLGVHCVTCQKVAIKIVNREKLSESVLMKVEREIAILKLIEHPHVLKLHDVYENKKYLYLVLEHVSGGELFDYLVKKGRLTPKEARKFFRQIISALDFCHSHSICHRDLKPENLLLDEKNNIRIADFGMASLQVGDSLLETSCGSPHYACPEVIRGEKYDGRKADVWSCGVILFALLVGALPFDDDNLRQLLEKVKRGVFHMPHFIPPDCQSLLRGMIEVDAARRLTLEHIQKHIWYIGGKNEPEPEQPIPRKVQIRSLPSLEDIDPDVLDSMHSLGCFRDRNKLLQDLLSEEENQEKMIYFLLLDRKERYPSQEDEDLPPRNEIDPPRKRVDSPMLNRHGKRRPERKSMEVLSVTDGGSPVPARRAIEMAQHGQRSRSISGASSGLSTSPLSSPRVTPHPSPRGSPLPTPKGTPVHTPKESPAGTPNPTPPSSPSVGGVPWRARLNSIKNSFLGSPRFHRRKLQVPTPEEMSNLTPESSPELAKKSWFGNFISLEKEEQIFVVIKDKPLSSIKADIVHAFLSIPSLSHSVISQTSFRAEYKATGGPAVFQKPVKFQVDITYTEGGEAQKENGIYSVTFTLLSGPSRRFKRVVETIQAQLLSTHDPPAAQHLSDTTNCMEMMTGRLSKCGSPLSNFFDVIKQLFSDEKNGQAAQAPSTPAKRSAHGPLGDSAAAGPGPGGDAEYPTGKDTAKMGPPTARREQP
Method: Our interest in illuminating BRSK2 biology motivated further investigation of the cellular target engagement of BRSK2 by GW296115 using our NanoBRET assay. BRSK2 kinase was fused to 19-kDa luciferase (NLuc) at its N-terminus (NLuc–BRSK2) which was transiently expressed in HEK293 cells, and then incubated with a cell-permeable fluorescent energy transfer probe (tracer)[23].
NanoBRET assays were executed as described previously. Constructs for BRSK2 NanoBRET measurements were provided in kind by Promega. The N-terminal Nanoluciferase (NL)/BRSK2 fusion (NL-BRSK2) was encoded in pFN32K expression vector, including flexible Gly-Ser-Ser-Gly linkers between NL and BRSK2 (Promega). For cellular BRSK2 NanoBRET target engagement experiments, a 10 μg/mL solution of DNA in Opti-MEM without serum (Gibco) was prepared with 9 μg/mL of Carrier DNA (Promega) and 1 μg/mL of NL-BRSK2 to achieve a total volume of 1.05 mL. To this solution was then added 31.5 μL of FuGENE HD (Promega) to form a lipid:DNA complex, mixed by inversion 8 times, and incubated at room temperature for 20 min. The resulting transfection complex (1.082 mL) was next gently mixed with HEK293 cells (21 mL) suspended at a density of 2 × 10^5 cells/mL in DMEM containing 10% FBS.
After 24 h, media was removed via aspiration and 85 μL of room temperature Opti-MEM without phenol red (Gibco) was added to each well. […] Next, 5 μL (20 × working stock of NanoBRET Tracer K5 [20 μM] in Tracer Dilution Buffer (Promega N291B)) was added to each well with the exception of the “no tracer” control wells. Test compounds were prepared as concentrated stock solutions in 100% DMSO (Sigma) at a concentration of 10 mM. […] A volume of 10 μL of tenfold test compound stock solutions (final assay concentration of […]) was added to each well. For “no compound” and “no tracer” control wells, 10 μL of Opti-MEM plus DMSO (9 μL Opti-MEM plus 1 μL DMSO) was added to each well to achieve a final concentration of 1% DMSO.
After 2 h, plates were returned to room temperature over the course of 15 min. […] Next, 50 μL of the 3 × substrate/extracellular NL inhibitor stock was added to each well.
Test compounds were evaluated at 8 concentrations in competition with NanoBRET Tracer K5 in HEK293 cells transiently expressing the NL-BRSK2 fusion protein. Raw milliBRET (mBRET) values were obtained by dividing the acceptor emission values (600 nm) by the donor emission values (450 nm), and then multiplying by 1000. Averaged control values were used to represent complete inhibition (no tracer control: transfected cells in Opti-MEM + DMSO; tracer control: transfected cells in Opti-MEM + DMSO + Tracer K5 only), and were plotted alongside the raw mBRET values. The data with n = 3 biological replicates was first normalized and then fit using Sigmoidal, 4PL binding curve in Prism Software (version 8, GraphPad, La Jolla, CA, USA).

[2] = system: cytoplasmic domain of PDGFR; parameters: method as in PMID 10048786; settings: insect cells; read-out: IC50, autophosphorylation of the cytoplasmic domain of PDGFR in insect cells; cited from earlier work
BRSK1 = biological target: T2, BRSK1 (Homo sapiens, UniProt Q8TDC3); parameters: purchased Eurofins DiscoverX Corporation; method as in earlier work; settings: cited from earlier work
T2 sequence (Q8TDC3 1-778): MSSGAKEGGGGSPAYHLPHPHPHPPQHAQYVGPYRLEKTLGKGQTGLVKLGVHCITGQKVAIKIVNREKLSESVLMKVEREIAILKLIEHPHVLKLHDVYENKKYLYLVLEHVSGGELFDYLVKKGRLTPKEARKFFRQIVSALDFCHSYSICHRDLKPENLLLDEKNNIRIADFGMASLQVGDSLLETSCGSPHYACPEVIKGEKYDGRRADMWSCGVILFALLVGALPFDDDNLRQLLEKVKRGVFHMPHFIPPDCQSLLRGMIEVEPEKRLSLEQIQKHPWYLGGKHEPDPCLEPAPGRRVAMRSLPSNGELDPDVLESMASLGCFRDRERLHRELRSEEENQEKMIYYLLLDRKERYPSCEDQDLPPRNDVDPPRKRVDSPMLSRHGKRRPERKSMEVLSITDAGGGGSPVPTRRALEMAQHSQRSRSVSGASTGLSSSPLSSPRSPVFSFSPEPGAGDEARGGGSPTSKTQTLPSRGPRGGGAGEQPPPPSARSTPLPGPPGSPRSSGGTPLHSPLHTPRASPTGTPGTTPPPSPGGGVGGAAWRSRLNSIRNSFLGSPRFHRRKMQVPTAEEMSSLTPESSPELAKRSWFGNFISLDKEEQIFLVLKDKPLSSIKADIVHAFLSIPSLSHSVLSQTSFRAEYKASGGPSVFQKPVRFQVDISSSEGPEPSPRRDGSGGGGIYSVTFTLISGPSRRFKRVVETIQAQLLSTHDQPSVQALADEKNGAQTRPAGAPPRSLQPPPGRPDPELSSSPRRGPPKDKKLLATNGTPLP

Q: What does the source list for `COc1ccc2[nH]c3c4[nH]c5ccc(OC)cc5c4c4c(c3c2c1)C(=O)NC4=O` [GW296115]?
A: IC50 [1]: 107 ± 28 nM; IC50 [2]: 2000 nM; Nanosyn % Inhibition at 1 μM (BRSK1): 102%
